Experimental data from ChEMBL document CHEMBL5244230, “Artemisinin-derived hybrids and their anticancer activity” (Eur J Med Chem, 2020).

Test system: HT-29
Assay: Antiproliferative activity against human HT-29 cells assessed as reduction in cell viability
Format: functional, cell-based
Conditions: not given

| SMILES | IC50 |
| --- | --- |
| CCOC(=O)c1cc2cccc(OCc3cn(CCO[C@@H]4O[C@@H]5O[C@@]6(C)CC[C@H]7[C@H](C)CC[C@@H]([C@H]4C)[C@@]57OO6)nn3)c2oc1=O | 430 nM |
| C[C@H]1[C@H](OCCCn2cc(COc3cccc4c(C(F)(F)F)cc(=O)oc34)nn2)O[C@@H]2O[C@@]3(C)CC[C@H]4[C@H](C)CC[C@@H]1[C@@]24OO3 | 430 nM |
| Cc1ccccc1NS(=O)(=O)/C=C/c1cccc(OCCO[C@@H]2O[C@@H]3O[C@@]4(C)CC[C@H]5[C@H](C)CC[C@@H]([C@H]2C)[C@@]35OO4)c1 | 50 nM |
| Cc1c(Cl)c(=O)oc2c(OCc3cn(CCCO[C@@H]4O[C@@H]5O[C@@]6(C)CC[C@H]7[C@H](C)CC[C@@H]([C@H]4C)[C@@]57OO6)nn3)cccc12 | 430 nM |
| C[C@H]1[C@H](OCCOc2cccc(/C=C/S(=O)(=O)Nc3cccc(Cl)c3)c2)O[C@@H]2O[C@@]3(C)CC[C@H]4[C@H](C)CC[C@@H]1[C@@]24OO3 | 50 nM |

Test system: A-431
Assay: Antiproliferative activity against human A-431 cells
Format: functional, cell-based
Conditions: not given

| SMILES | IC50 |
| --- | --- |
| CC(=O)c1cccc(-n2cc(CO[C@H]3O[C@@H]4O[C@]5(C)OO[C@]46[C@@H](CC[C@@H](C)[C@@H]6C[C@H]5O)[C@H]3C)nn2)c1 | 25300 nM |

Test system: K562
Assay: Antiproliferative activity against human K562 cells
Format: functional, cell-based
Conditions: not given

| SMILES | IC50 |
| --- | --- |
| CC(=O)c1cccc(-n2cc(CO[C@H]3O[C@@H]4O[C@]5(C)OO[C@]46[C@@H](CC[C@@H](C)[C@@H]6C[C@H]5O)[C@H]3C)nn2)c1 | 25300 nM |

Test system: PC-3
Assay: Antiproliferative activity against human PC-3 cells
Format: functional, cell-based
Conditions: not given

| SMILES | IC50 |
| --- | --- |
| CC(=O)c1cccc(-n2cc(CO[C@H]3O[C@@H]4O[C@]5(C)OO[C@]46[C@@H](CC[C@@H](C)[C@@H]6C[C@H]5O)[C@H]3C)nn2)c1 | 25300 nM |

Test system: MDA-MB-231
Assay: Antiproliferative activity against human MDA-MB-231 cells
Format: functional, cell-based
Conditions: Homo sapiens, MDA-MB-231

| SMILES | IC50 |
| --- | --- |
| CC(=O)c1cccc(-n2cc(CO[C@H]3O[C@@H]4O[C@]5(C)OO[C@]46[C@@H](CC[C@@H](C)[C@@H]6C[C@H]5O)[C@H]3C)nn2)c1 | 25300 nM |
| Cc1ccccc1NS(=O)(=O)/C=C/c1cccc(OCCO[C@@H]2O[C@@H]3O[C@@]4(C)CC[C@H]5[C@H](C)CC[C@@H]([C@H]2C)[C@@]35OO4)c1 | 50 nM |
| C[C@H]1[C@H](OCCOc2cccc(/C=C/S(=O)(=O)Nc3cccc(Cl)c3)c2)O[C@@H]2O[C@@]3(C)CC[C@H]4[C@H](C)CC[C@@H]1[C@@]24OO3 | 50 nM |

Test system: COLO 205
Assay: Antiproliferative activity against human COLO 205 cells
Format: functional, cell-based
Conditions: not given

| SMILES | IC50 |
| --- | --- |
| CC(=O)c1cccc(-n2cc(CO[C@H]3O[C@@H]4O[C@]5(C)OO[C@]46[C@@H](CC[C@@H](C)[C@@H]6C[C@H]5O)[C@H]3C)nn2)c1 | 25300 nM |

Test system: not listed separately
Assay: Antiproliferative activity against human MRC5 cells assessed as reduction in cell viability
Format: toxicity, cell-based
Conditions: not given

| SMILES | IC50 |
| --- | --- |
| CCOC(=O)c1cc2cccc(OCc3cn(CCO[C@@H]4O[C@@H]5O[C@@]6(C)CC[C@H]7[C@H](C)CC[C@@H]([C@H]4C)[C@@]57OO6)nn3)c2oc1=O | 430 nM |
| C[C@H]1[C@H](OCCCn2cc(COc3cccc4c(C(F)(F)F)cc(=O)oc34)nn2)O[C@@H]2O[C@@]3(C)CC[C@H]4[C@H](C)CC[C@@H]1[C@@]24OO3 | 430 nM |
| Cc1c(Cl)c(=O)oc2c(OCc3cn(CCCO[C@@H]4O[C@@H]5O[C@@]6(C)CC[C@H]7[C@H](C)CC[C@@H]([C@H]4C)[C@@]57OO6)nn3)cccc12 | 430 nM |

Test system: NCI-H460
Assay: Antiproliferative activity against human NCI-H460 cells
Format: functional, cell-based
Conditions: not given

| SMILES | IC50 |
| --- | --- |
| Cc1ccccc1NS(=O)(=O)/C=C/c1cccc(OCCO[C@@H]2O[C@@H]3O[C@@]4(C)CC[C@H]5[C@H](C)CC[C@@H]([C@H]2C)[C@@]35OO4)c1 | 50 nM |
| C[C@H]1[C@H](OCCOc2cccc(/C=C/S(=O)(=O)Nc3cccc(Cl)c3)c2)O[C@@H]2O[C@@]3(C)CC[C@H]4[C@H](C)CC[C@@H]1[C@@]24OO3 | 50 nM |

Test system: HEK293
Assay: Antiproliferative activity against human HEK293 cells
Format: functional, cell-based
Conditions: not given

| SMILES | IC50 |
| --- | --- |
| CC(=O)c1cccc(-n2cc(CO[C@H]3O[C@@H]4O[C@]5(C)OO[C@]46[C@@H](CC[C@@H](C)[C@@H]6C[C@H]5O)[C@H]3C)nn2)c1 | 25300 nM |

Test system: not listed separately
Assay: Antiproliferative activity against human U-87 MG cells
Format: functional, cell-based, U-87MG ATCC
Conditions: not given

| SMILES | IC50 |
| --- | --- |
| Cc1ccccc1NS(=O)(=O)/C=C/c1cccc(OCCO[C@@H]2O[C@@H]3O[C@@]4(C)CC[C@H]5[C@H](C)CC[C@@H]([C@H]2C)[C@@]35OO4)c1 | 50 nM |
| C[C@H]1[C@H](OCCOc2cccc(/C=C/S(=O)(=O)Nc3cccc(Cl)c3)c2)O[C@@H]2O[C@@]3(C)CC[C@H]4[C@H](C)CC[C@@H]1[C@@]24OO3 | 50 nM |

Test system: HCT-116
Assay: Antiproliferative activity against human HCT-116 cells assessed as reduction in cell viability
Format: functional, cell-based
Conditions: Homo sapiens, HCT-116

| SMILES | IC50 |
| --- | --- |
| CCOC(=O)c1cc2cccc(OCc3cn(CCO[C@@H]4O[C@@H]5O[C@@]6(C)CC[C@H]7[C@H](C)CC[C@@H]([C@H]4C)[C@@]57OO6)nn3)c2oc1=O | 430 nM |
| C[C@H]1[C@H](OCCCn2cc(COc3cccc4c(C(F)(F)F)cc(=O)oc34)nn2)O[C@@H]2O[C@@]3(C)CC[C@H]4[C@H](C)CC[C@@H]1[C@@]24OO3 | 430 nM |
| Cc1c(Cl)c(=O)oc2c(OCc3cn(CCCO[C@@H]4O[C@@H]5O[C@@]6(C)CC[C@H]7[C@H](C)CC[C@@H]([C@H]4C)[C@@]57OO6)nn3)cccc12 | 430 nM |

Test system: MDA-MB-231
Assay: Antiproliferative activity against human MDA-MB-231 cells assessed as reduction in cell viability
Format: functional, cell-based
Conditions: not given

| SMILES | IC50 |
| --- | --- |
| CCOC(=O)c1cc2cccc(OCc3cn(CCO[C@@H]4O[C@@H]5O[C@@]6(C)CC[C@H]7[C@H](C)CC[C@@H]([C@H]4C)[C@@]57OO6)nn3)c2oc1=O | 430 nM |
| C[C@H]1[C@H](OCCCn2cc(COc3cccc4c(C(F)(F)F)cc(=O)oc34)nn2)O[C@@H]2O[C@@]3(C)CC[C@H]4[C@H](C)CC[C@@H]1[C@@]24OO3 | 430 nM |
| Cc1c(Cl)c(=O)oc2c(OCc3cn(CCCO[C@@H]4O[C@@H]5O[C@@]6(C)CC[C@H]7[C@H](C)CC[C@@H]([C@H]4C)[C@@]57OO6)nn3)cccc12 | 430 nM |

Test system: A549
Assay: Antiproliferative activity against human A549 cells
Format: functional, cell-based
Conditions: not given

| SMILES | IC50 |
| --- | --- |
| CC(=O)c1cccc(-n2cc(CO[C@H]3O[C@@H]4O[C@]5(C)OO[C@]46[C@@H](CC[C@@H](C)[C@@H]6C[C@H]5O)[C@H]3C)nn2)c1 | 25300 nM |
| Cc1ccccc1NS(=O)(=O)/C=C/c1cccc(OCCO[C@@H]2O[C@@H]3O[C@@]4(C)CC[C@H]5[C@H](C)CC[C@@H]([C@H]2C)[C@@]35OO4)c1 | 50 nM |
| C[C@H]1[C@H](OCCOc2cccc(/C=C/S(=O)(=O)Nc3cccc(Cl)c3)c2)O[C@@H]2O[C@@]3(C)CC[C@H]4[C@H](C)CC[C@@H]1[C@@]24OO3 | 50 nM |
